Legend:
[1] = Storage stability of isosorbide in sealed packaging sachets at 50° C., pH-metry; assay type: physicochemical
Excerpt: 50 g of isosorbide in solid form (flakes) are introduced into a sachet (25 cm×25 cm) constituted of the packaging material to be tested. The sachet is immediately sealed by welding using an impulse heat sealer (model SZ 380 sold by Joisten & Kettenbaum GmbH & Co, Bergisch Gladbach, Germany). The thus sealed sachet is in turn introduced into a second sachet made of aluminum comprising a polyethylene coating, sealed by welding using the same heat sealer in order to ensure leaktightness with respect to the external atmosphere. The samples thus packaged are placed in a ventilated oven, thermostatted at a temperature of 50° C. A control sample is enclosed in a glass flask and stored under the same conditions.
After a given period, the whole of the sample of isosorbide is extracted from the packagings and dissolved to 40% by weight of solids in osmosed water. […]

[2] = Analysis for peroxides on the packaged product after storage; assay type: physicochemical; conditions: packaged in accordance with the invention (PE + carbon black); 50° C.; after 4 months of storage

Compound: O[C@@H]1CO[C@H]2[C@@H]1OC[C@@H]2O [isosorbide, 1,4:3,6-dianhydrosorbitol]
- drop in pH after storage ([1]; packaged in accordance with the invention (PE + carbon black), after 4 months of storage): no drop in pH
- pH of the solution ([1]; packaging PE + carbon black (according to the invention), storage 0 day, 40% by weight of solids in osmosed water): pH 7.6
- pH of the solution ([1]; packaging PE + carbon black (according to the invention), storage 1 month, 40% by weight in osmosed water): pH 7.3
- pH of the solution ([1]; packaging PE + carbon black (according to the invention), storage 1.5 month, 40% by weight in osmosed water): pH 7.4
- pH of the solution ([1]; packaging PE + carbon black (according to the invention), storage 2 months, 40% by weight in osmosed water): pH 7.5
- pH of the solution ([1]; packaging PE + carbon black (according to the invention), storage 2 weeks, 40% by weight in osmosed water): pH 7.2
- pH of the solution ([1]; packaging PE + carbon black (according to the invention), storage 2.5 months, 40% by weight in osmosed water): pH 7.5
- pH of the solution ([1]; packaging PE + carbon black (according to the invention), storage 3 months, 40% by weight in osmosed water): pH 7.6
- pH of the solution ([1]; packaging PE + carbon black (according to the invention), storage 4 months, 40% by weight in osmosed water): pH 7.7
- pH of the solution ([1]; packaging Sachet 1 (comp.) branched/linear polyethylene 50%/50%, storage 0 day, 40% by weight in osmosed water): pH 7.6
- pH of the solution ([1]; packaging Sachet 1 (comp.) branched/linear polyethylene 50%/50%, storage 1 month, 40% by weight in osmosed water): pH 7.4
- pH of the solution ([1]; packaging Sachet 1 (comp.) branched/linear polyethylene 50%/50%, storage 1.5 month, 40% by weight in osmosed water): pH 7.4
- pH of the solution ([1]; packaging Sachet 1 (comp.) branched/linear polyethylene 50%/50%, storage 2 weeks, 40% by weight in osmosed water): pH 7.5
- pH of the solution ([1]; packaging Sachet 2 (comp.) branched/linear polyethylene 70%/30%, storage 0 day, 40% by weight in osmosed water): pH 7.6
- pH of the solution ([1]; packaging Sachet 2 (comp.) branched/linear polyethylene 70%/30%, storage 2 weeks, 40% by weight in osmosed water): pH 7.5
- pH of the solution ([1]; packaging Sachet 3 (comp.) 100% of branched polyethylene, storage 0 day, 40% by weight in osmosed water): pH 7.6
- pH of the solution ([1]; packaging Sachet 4 (comp.) 100% of linear polyethylene, storage 0 day, 40% by weight in osmosed water): pH 7.6
- pH of the solution ([1]; packaging Sachet 4 (comp.) 100% of linear polyethylene, storage 2 weeks, 40% by weight in osmosed water): pH 7.2
- odor after storage ([1]; samples not packaged in accordance with the invention, glass 4 months, sachet 1 2 months, sachets 2 and 4 1 month, sachet 3 2 weeks): characteristic odor of formic acid
- presence of peroxides (markers of oxidation phenomena, instability) [2]: did not show any presence of peroxides

— patent US8283009B2, “Use of a material based on a thermoplastic polymer having a high content of antioxidants for packaging dianhydrohexitols” (Roquette Freres, priority 2007, dated 2012)
